From patent US20250170114A1, “METHODS OF TREATMENT USING T-TYPE CALCIUM CHANNEL MODULATORS” (Praxis Precision Medicines, Inc., priority 2022, published 2025)

System: participants with ET
Test: Phase 2 trial: treatment-emergent adverse events (TEAEs)
Assay type: in vivo
Description: Part A of the clinical trial was open-label and assessed the safety and tolerability of the study drug, as well as the overall magnitude and pattern of change in ET severity.
Part B of the clinical trial consisted of both an open-label titration phase and a randomized, double-blind, placebo-controlled withdrawal phase. Part B assessed the safety and tolerability of the study drug, as well as the overall magnitude and pattern of change in ET severity and the duration of that effect. […] In the randomized, double-blind, placebo-controlled withdrawal phase, participants were either maintained on their final open-label dose or switched to placebo for an additional 14 days (Days 43 to 56).
Key safety measures included clinical laboratory evaluations, 12-lead ECG, C-SSRS, and vital signs. Key efficacy assessments included the TETRAS Performance subscale, TETRAS Upper Limb using accelerometry, CGI, and PGI-C. Blood samples were obtained for the determination of study drug plasma concentrations using a validated bioanalytical method and may also be used for method development and/or metabolite characterization.
On Day 1, participants received a 20 mg dose of study drug on an empty stomach (at least 1 hour before breakfast). Participants remained in a clinical setting under medical observation for approximately 6 hours. TETRAS Performance assessments were performed before dosing and 6 hours (±2) post-dose. For dosing on Day 2 through Day 41, participants were instructed to dose QAM at least 1 hour before breakfast at home. Participants continued taking study drug 20 mg QAM at home through Day 3. […] On Day 4, participants escalated to 40 mg QAM through Day 7, when they returned to the clinic for safety assessments and efficacy testing. On Day 8, participants escalated to 60 mg QAM through Day 14. […] On Day 15, participants escalated to 80 mg QAM through Day 21, when they returned to the clinic for safety assessments and efficacy testing. On Day 22, participants escalated to 100 mg QAM through Day 28. […] On Day 29, participants escalated to 120 mg QAM through Day 42, when they returned to the clinic for safety assessments and efficacy testing. The dose on Day 42 was taken in the clinic. On Day 35, participants received a telephone call from site staff to inquire about AEs and concomitant medications. On Day 41, participants completed a TETRAS Performance Upper Limb assessment via a telehealth visit. […] Participants could only change to a lower dose level once, and no dose changes were allowed to occur after Day 36.
In both phases, key safety measures included clinical laboratory evaluations, 12-lead ECG, C-SSRS, and vital signs. Key efficacy assessments included the TETRAS Performance subscale, TETRAS Upper Limb using accelerometry, CGI, PGI-C, TETRAS ADL Subscale, QUEST, BDI-II, and BAI. Blood samples were obtained for the determination of study drug and metabolite plasma concentrations.

[1] = Part A, Overall, N = 7, listed as study drug
[2] = Part B - RWD, study drug group, N = 6

CC(C)(C)NC(=O)CN1CCC(CNC(=O)c2cc(F)cc(Cl)c2)CC1.Cl [Study drug]
Drug-related TEAE dizziness (Part A): 3 participants
participants experiencing TEAEs considered related to study drug (Part A): 57.1%
participants who experienced at least 1 TEAE (Part A): 85.7%
Any TEAE (Part A (overall), N = 7): 6 (85.7) n (%)
Any TEAE leading to study drug withdrawal (Part A (overall), N = 7): 1 (14.3) n (%)
Any TEAE related to disease under study (Part A (overall), N = 7): 1 (14.3) n (%)
Any TEAE related to study drug (Part A (overall), N = 7): 4 (57.1) n (%)
Any TEAE related to study procedure (Part A (overall), N = 7): 0 n (%)
Any fatal SAEs (Part A (overall), N = 7): 0 n (%)
Any serious adverse events (Part A (overall), N = 7): 0 n (%)
TEAE Mild (Part A (overall), N = 7): 6 (85.7) n (%)
TEAE Moderate (Part A (overall), N = 7): 1 (14.3) n (%)
TEAE Severe (Part A (overall), N = 7): 0 n (%)
participants who experienced AEs leading to study drug withdrawal (Part A and open-label titration phase of Part B together): 7 participants
Any TEAE (Part A, 20 mg, N = 7): 6 (85.7) n (%)
TEAE PT Dizziness (Part A, 20 mg, N = 7): 4 (57.1) n (%)
TEAE PT Headache (Part A, 20 mg, N = 7): 3 (42.9) n (%)
TEAE SOC Nervous System Disorders (Part A, 20 mg, N = 7): 6 (85.7) n (%)
TEAE SOC Psychiatric Disorders (Part A, 20 mg, N = 7): 2 (28.6) n (%)
Any TEAE (Part A, 40 mg, N = 6): 2 (33.3) n (%)
TEAE PT Dizziness (Part A, 40 mg, N = 6): 0 n (%)
TEAE PT Headache (Part A, 40 mg, N = 6): 1 (16.7) n (%)
TEAE SOC Nervous System Disorders (Part A, 40 mg, N = 6): 1 (16.7) n (%)
TEAE SOC Psychiatric Disorders (Part A, 40 mg, N = 6): 0 n (%)
Any TEAE (Part A, Overall, N = 7): 6 (85.7) n (%)
TEAE PT Dizziness (Part A, Overall, N = 7): 4 (57.1) n (%)
TEAE PT Headache (Part A, Overall, N = 7): 3 (42.9) n (%)
TEAE SOC Nervous System Disorders (Part A, Overall, N = 7): 6 (85.6) n (%)
TEAE SOC Psychiatric Disorders (Part A, Overall, N = 7): 2 (28.6) n (%)
Any TEAE leading to study drug withdrawal [1]: 1 n (%)
TEAE PT Dizziness [1]: 4 n (%)
TEAE PT Headache [1]: 3 n (%)
Any TEAE (Part B - OLT, N = 17): 15 n (%)
Any TEAE leading to study drug withdrawal (Part B - OLT, N = 17): 6 n (%)
Any TEAE related to disease under study (Part B - OLT, N = 17): 1 n (%)
Any TEAE related to study drug (Part B - OLT, N = 17): 12 n (%)
Any TEAE related to study procedure (Part B - OLT, N = 17): 0 n (%)
Any fatal SAEs (Part B - OLT, N = 17): 0 n (%)
Any serious adverse events (Part B - OLT, N = 17): 1 n (%)
TEAE Mild (Part B - OLT, N = 17): 13 n (%)
TEAE Moderate (Part B - OLT, N = 17): 7 n (%)
TEAE Severe (Part B - OLT, N = 17): 0 n (%)
Any TEAE [2]: 1 (16.7) n (%)
Any TEAE leading to study drug withdrawal [2]: 0 n (%)
Any TEAE related to disease under study [2]: 0 n (%)
Any TEAE related to study drug [2]: 0 n (%)
Any TEAE related to study procedure [2]: 0 n (%)
Any fatal SAEs [2]: 0 n (%)
Any serious adverse events [2]: 0 n (%)
TEAE Mild [2]: 1 (16.7) n (%)
TEAE Moderate [2]: 1 (16.7) n (%)
TEAE Severe [2]: 0 n (%)
Any TEAE (Part B - RWD, study drug group, N = 6, listed as study drug): 1 n (%)
Any TEAE (Part B, 20 mg, N = 17): 10 n (%)
PT Cognitive disorder (Part B, 20 mg, N = 17): 2 n (%)
PT Constipation (Part B, 20 mg, N = 17): 1 n (%)
PT Dizziness (Part B, 20 mg, N = 17): 4 n (%)
PT Fatigue (Part B, 20 mg, N = 17): 2 n (%)
PT Insomnia (Part B, 20 mg, N = 17): 1 n (%)
SOC Gastrointestinal Disorders (Part B, 20 mg, N = 17): 3 n (%)
SOC General Disorders and Administration Site Conditions (Part B, 20 mg, N = 17): 2 n (%)
SOC Musculoskeletal and Connective Tissue Disorders (Part B, 20 mg, N = 17): 1 n (%)
SOC Nervous System Disorders (Part B, 20 mg, N = 17): 8 n (%)
SOC Psychiatric Disorders (Part B, 20 mg, N = 17): 1 n (%)
SOC Vascular Disorders (Part B, 20 mg, N = 17): 0 n (%)
Any TEAE (Part B, 40 mg, N = 15): 8 n (%)
PT Cognitive disorder (Part B, 40 mg, N = 15): 1 n (%)
PT Constipation (Part B, 40 mg, N = 15): 3 n (%)
PT Dizziness (Part B, 40 mg, N = 15): 1 n (%)
PT Fatigue (Part B, 40 mg, N = 15): 1 n (%)
PT Insomnia (Part B, 40 mg, N = 15): 2 n (%)
SOC Gastrointestinal Disorders (Part B, 40 mg, N = 15): 3 n (%)
SOC General Disorders and Administration Site Conditions (Part B, 40 mg, N = 15): 2 n (%)
SOC Musculoskeletal and Connective Tissue Disorders (Part B, 40 mg, N = 15): 0 n (%)
